Values after ≈ are worked out from the molar mass of the structure shown.
What was measured:
T. cruzi epimastigotes [1] = experiment: T. cruzi epimastigote toxicity, visually assessed; format: cell-based, Trypanosoma cruzi; settings: 48 hours at 30° C.
Experimental: A 1:20 working dilution of T. cruzi epimastigotes was prepared in LIT1029 medium from a saturated (˜4×10^6 cells/mL) culture. 100 μL of the 1:20 working dilution was plated, and the epimastigotes were incubated with a compound of the disclosure at varying concentrations for 48 hours at 30° C. Following T. cruzi epimastigote treatment with a compound of the disclosure, the toxicity of compounds towards T. cruzi epimastigotes was visually assessed.

T. cruzi epimastigotes [2] = experiment: MIC against T. cruzi epimastigotes, ATP assay; format: cell-based; settings: Trypanosoma cruzi, 48 hours at 30° C.
Experimental: A 1:20 working dilution of T. cruzi epimastigotes was prepared in LIT1029 medium from a saturated (˜4×10^6 cells/mL) culture. 100 μL of the 1:20 working dilution was plated, and the epimastigotes were incubated with 50 μM, 25 μM, 12.5 μM, 6.25 μM, 3.13 μM, 1.5 μM, or 0 μM Compound 2 for 48 hours at 30° C. After incubation with Compound 2, T. cruzi viability was assessed via an ATP assay. […] An increase in relative light units (RLU) indicates the presence of ATP and viable cells. Phenylarsine oxide (PAO) was used as a control.

U87 cells = experiment: MTT cell survival assay, U87; format: cell-based; settings: Homo sapiens, U-87 MG, 48 hours at 37° C., read-out: IC50 (GI50), cell survival
Experimental: (§1) The GI50 (IC50), the concentration at which 50% cell survival is seen upon treatment with a compound, was determined for Compound 2 in Jurkat, U87, HeLa, and ARPE cells. Cells were cultured in 96-well plates and incubated with 50 μM, 25 μM, 12.5 μM, 6 μM, 3 μM, 1.5 μM, or 0 μM of Compound 2 for 48 hours at 37° C. Following the incubation period, a 3-(4,5-dimethylthiazol-2-yl)-2,5-diphenyl tetrazolium bromide (MTT) assay was performed. In brief, a 10% volume of MTT was added to each well. Cells were incubated with MTT for 2 hours, at which time cell supernatant was removed and cells were taken into 100 μL DMSO. The absorbance of cell solutions was then read at 595 nm. A decrease in absorbance indicated a decrease in cell survival.

HeLa cells = experiment: MTT cell survival assay, HeLa; format: cell-based; settings: Homo sapiens, 48 hours at 37° C., read-out: IC50 (GI50), cell survival
Experimental: as §1

ARPE cells = experiment: MTT cell survival assay, ARPE; format: cell-based; settings: Homo sapiens, 48 hours at 37° C., read-out: IC50 (GI50), cell survival
Experimental: as §1

[3] = tested on: T. cruzi-infected VERO cells; experiment: Treatment of T. cruzi-infected VERO cells, confocal microscopy; format: cell-based, Trypanosoma cruzi; settings: 5 μM, 5 days
Experimental: 2×10^4 VERO cells were plated in individual confocal dishes and allowed to adhere for 16 hours at 37° C. […] The T. cruzi-infected dishes were incubated with ˜2×10^6 T. cruzi/mL for 24 hours at 37° C. to allow for internalization of parasites. T. cruzi parasites expressed tdTomato, which allowed for visualization of parasites within cells. After the 24-hour T. cruzi incubation period, extracellular parasites were removed from culture dishes. The cells were washed 3 times with cell culture media (10% fetal bovine serum; 1% penicillin/streptomycin). Designated plates were then incubated with 5 μM Compound 2 or 5 μM Compound 7 for 5 days at 37° C. Cells were then fixed in 2% paraformaldehyde and tdTomato fluorescence in cells was assessed via confocal microscopy.

L. major promastigotes = experiment: L. major promastigote viability, propidium iodide flow cytometry; format: cell-based, Leishmania major; settings: 50 μM, 48 hours at 24° C.
Experimental: 5×10^5 L. major promastigotes were treated with vehicle control (DMSO), […], 5 μM Compound 5, 50 μM Compound 2, 50 μM Compound 5, or […] for 48 hours at 24° C. Promastigote viability was then assessed via a propidium iodide flow cytometry assay. Propidium iodide is only taken up by dead cells, and the presence of fluorescence in a promastigote sample reflects compound efficacy.

[4] = tested on: L. major-infected PBMC cells; experiment: L. major-infected PBMC cells, Hoechst micrographs; format: cell-based, Leishmania major; settings: 40 μM
Experimental: Human peripheral blood mononuclear cells (PBMC) were plated onto polylysine-coated glass slides in 24-well plates and allowed to differentiate towards monocyte-derived macrophages (MDMs). Non-adherent cells were removed 48-hours post plating. Adherent monocytes were left to further differentiate for another 48 hours to MDMs. Following the completion of the differentiation period, MDMs were treated with vehicle control (DMSO), […], […], Compound 4, Compound 6, Compound 7, Compound 8, Compound 9, Compound 10, […]

[5] = tested on: T. cruzi-infected THP-1 cells; experiment: T. cruzi-infected THP-1 derived macrophages, confocal microscopy; format: cell-based, Trypanosoma cruzi; settings: 2 μM, 7 days
Experimental: Macrophages derived by differentiation of THP-1 cells with phorbol myristate acetate were plated in confocal dishes (about 5,000 cells per dish) and incubated overnight at 37° C. Dishes were incubated with T. cruzi amastigotes and trypomastigotes expressing tdTomato (˜2×10^5 cells) for 24 hours at 37° C. Uninfected plates served as controls. After the 24-hour T. cruzi incubation period, parasites were removed, and medium was re-plated with DMEM/F12 culture media with 2 μM Compound 2 (or left untreated as a control) for 7 days at 37° C. Following fixation of cells in 4% paraformaldehyde, tdTomato fluorescence (which is indicative of viable T. cruzi) in cells was then assessed via confocal microscopy.

L. major-infected MDMs = experiment: L. major-infected human MDMs, quantitative cell bioimaging; format: cell-based, Leishmania major; settings: 1 μM, 5 μM, 10 μM
Experimental: Human MDMs were cultured on glass slides and incubated with metacyclic L. major for 24 hours to allow for internalization of parasites. After the 24-hour L. major incubation period, extracellular parasites were removed from the culture. 24 hours after the removal of extracellular parasites, infected cells were treated with vehicle control (DMSO), 5 μM MTF, 1 μM Compound 2, 5 μM Compound 2, 10 μM Compound 2, 2 μM Compound 7, or 20 μM Compound 7. Following treatment, the cells were fixed with 2% paraformaldehyde and subsequently stained with the DNA stain Hoechst 33342. The stained cover slips were transferred onto glass slides, and quantitative cell bioimaging was utilized to determine the number of amastigotes per 500 cells using a CellInsight CX5 High Content screening platform.

## O=C(NO)C(c1ccccc1)c1c(-c2ccc3ccccc3c2)[nH]c2ccccc12 (stereo not shown) [Compound 2, N-hydroxy-2-(2-(naphthalen-2-yl)-1H-indol-3-yl)-2-phenylacetamide]
T. cruzi epimastigotes [1]
  Concentration at which T. cruzi epimastigote death is greater than or equal to ~99%: 6 µM
T. cruzi epimastigotes [2]
  MIC: ~6 µM (≈ 2.35 µg/mL)
U87 cells
  IC50: 11.5 ± 0.41 µM
HeLa cells
  IC50: 13.7 ± 0.75 µM
ARPE cells
  IC50: 14.8 ± 1.13 µM
[3]
  T. cruzi infection in VERO cells: eradication of T. cruzi infection
L. major promastigotes
  efficacy on L. major promastigote survival: higher efficacy than MTF or the vehicle control
[4]
  number of parasites/PBMC cell: decreases the number of parasites/PBMC cell
[5]
  intracellular proliferation of T. cruzi: prevented intracellular proliferation of T. cruzi
L. major-infected MDMs
  total number of parasites per cell: decreased the total number of parasites per cell in a dose dependent manner
